Patent publication US10221138B2, “Biaryl derivatives as GPR120 agonists” (LG CHEM, LTD., priority 2013, dated 2019)

Biological target: T1, hGPR120 (Homo sapiens, UniProt Q5NUL3)
T1 construct: expressed in transfected cells; host or cells: CHO-K1
T1 sequence (Q5NUL3 1-361): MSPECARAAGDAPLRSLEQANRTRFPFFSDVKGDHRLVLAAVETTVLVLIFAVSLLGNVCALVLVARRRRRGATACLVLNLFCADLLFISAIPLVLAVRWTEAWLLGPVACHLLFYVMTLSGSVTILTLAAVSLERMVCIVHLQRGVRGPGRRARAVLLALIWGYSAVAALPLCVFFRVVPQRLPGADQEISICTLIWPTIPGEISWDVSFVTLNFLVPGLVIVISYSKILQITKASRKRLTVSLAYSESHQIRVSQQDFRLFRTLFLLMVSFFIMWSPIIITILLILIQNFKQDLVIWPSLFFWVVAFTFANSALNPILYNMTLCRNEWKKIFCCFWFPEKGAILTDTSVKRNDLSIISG
Test: Measurement of activity of GPR120 agonist (cell-based calcium fluorescence assay)
Settings: CHO-K1 cells expressing Ga16 and hGPR120, Calcium 5 dye fluorescence; activity class; read-out: EC50
Method in brief: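 CHO-K1 cells co-expressing Gα16 and hGPR120, plated 18 h, loaded with Calcium 5 dye for 1 h at 37 °C, then given serially diluted agonists (final 0.5% DMSO). Fluorescence increase expressed as relative % of the 1% DMSO-only signal.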

EC50 | SMILES
> 20000 nM | CC1(COc2ncccc2-c2cc(F)c(OCCCC(=O)O)c(F)c2)COC1 [Example 221, 4-[2,6-difluoro-4-[2-[(3-methyloxetan-3-yl)methoxy]-3-pyridyl]phenoxy]butanoic acid]
2000 to 20000 nM | O=C(O)CCCOc1c(F)cc(-c2cccnc2OCC2CCOC2)cc1F (stereo not drawn) [Example 222, 4-[2,6-difluoro-4-[2-(tetrahydrofuran-3-ylmethoxy)-3-pyridyl]phenoxy]butanoic acid]
200 to 2000 nM | O=C(O)CCCOc1c(F)cc(-c2cccnc2OC2CC2)cc1F [Example 225, 4-[4-(2-cyclopropoxy-pyridin-3-yl)-2,6-difluoro-phenoxy]-butyric acid]
> 20000 nM | CC(C)(C)[Si](C)(C)OC1CCC(Oc2ncccc2-c2cc(F)c(OCCCC(=O)O)c(F)c2)C1 (stereo not drawn) [Example 226, 4-(4-{2-[3-(tert-butyl-dimethyl-silanyloxy)-cyclopentyloxy]-pyridin-3-yl}-2,6-difluoro-phenoxy)-butyric acid]
2000 to 20000 nM | O=C(O)CCCOc1c(F)cc(-c2cccnc2OC2CCC(O)C2)cc1F (stereo not drawn) [Example 227, 4-{2,6-difluoro-4-[2-(3-hydroxy-cyclopentyloxy)-pyridin-3-yl]-phenoxy}-butyric acid]
< 200 nM | O=C(O)CCCOc1c(F)cc(-c2cccnc2OC2CCCCC2)cc1F [Example 228, 4-[4-(2-cyclohexyloxy-pyridin-3-yl)-2,6-difluoro-phenoxy]-butyric acid]
< 200 nM | O=C(O)CCCOc1c(F)cc(-c2cccnc2OCC2CCCC2)cc1F [Example 229, 4-[4-(2-cyclopentylmethoxy-pyridin-3-yl)-2,6-difluoro-phenoxy]-butyric acid]
200 to 2000 nM | CC(C)(C)COc1ncccc1-c1cc(F)c(OCCCC(=O)O)c(F)c1 [Example 231, 4-{4-[2-(2,2-dimethy-propoxy)-pyridin-3-yl]-2,6-difluoro-phenoxy}-butyric acid]
< 200 nM | O=C(O)CCCCOc1c(F)cc(-c2cccnc2OC2CCCC2)cc1F [Example 232, 5-[4-(2-cyclopentyloxy-pyridin-3-yl)-2,6-difluoro-phenoxy]-pentanoic acid]
< 200 nM | O=C(O)CCCCOc1c(F)cc(-c2cccnc2SC2CCC2)cc1F [Example 233, 5-[4-(2-cyclobutylsulfanyl-3-pyridyl)-2,6-difluoro-phenoxy]pentanoic acid]
< 200 nM | O=C(O)CCCCOc1c(F)cc(-c2cccnc2SC2CCCC2)cc1F [Example 234, 5-[4-(2-cyclopentylsulfanyl-3-pyridyl)-2,6-difluoro-phenoxy]pentanoic acid]
< 200 nM | CC(C)Sc1ncccc1-c1cc(F)c(OCCCCC(=O)O)c(F)c1 [Example 235, 5-[2,6-difluoro-4-(2-isopropylsulfanyl-3-pyridyl)phenoxy]pentanoic acid]
< 200 nM | CCCSc1ncccc1-c1cc(F)c(OCCCCC(=O)O)c(F)c1 [Example 236, 5-[2,6-difluoro-4-(2-propylsulfanyl-3-pyridyl)phenoxy]pentanoic acid]
< 200 nM | CC(C)Sc1cccc(-c2cc(F)c(OCCCCC(=O)O)c(F)c2)n1 [Example 237, 5-[2,6-difluoro-4-(6-isopropylsulfanyl-2-pyridyl)phenoxy]pentanoic acid]
< 200 nM | CC(C)Oc1cccc(-c2cc(F)c(OCCCCC(=O)O)c(F)c2)n1 [Example 238, 5-[2,6-difluoro-4-(6-isopropoxy-2-pyridyl)phenoxy]pentanoic acid]
< 200 nM | O=C(O)CCCCOc1c(F)cc(-c2cccnc2OCC2CC2)cc1F [Example 239, 5-[4-[2-(cyclopropylmethoxy)-3-pyridyl]-2,6-difluoro-phenoxy]pentanoic acid]
200 to 2000 nM | O=C(O)CCCCOc1c(F)cc(-c2cccnc2OC2CCOC2)cc1F (stereo not drawn) [Example 240, 5-[2,6-difluoro-4-(2-tetrahydrofuran-3-yloxy-3-pyridyl)phenoxy]pentanoic acid]
200 to 2000 nM | O=C(O)CCCCOc1c(F)cc(-c2cccnc2OC2CCOCC2)cc1F [Example 241, 5-[2,6-difluoro-4-(2-tetrahydropyran-4-yloxy-3-pyridyl)phenoxy]pentanoic acid]
< 200 nM | CC(C)Oc1ncccc1-c1cc(F)c(SC(C)CCC(=O)O)c(F)c1 (stereo not drawn) [Example 242, 4-[2,6-difluoro-4-(2-isopropoxy-pyridin-3-yl)-phenylsulfanyl]-pentanoic acid]
200 to 2000 nM | O=C(O)CCCSc1ccc(-c2cccnc2OC2CCOCC2)cc1F [Example 244, 4-{2-fluoro-4-[2-(tetrahydropyran-4-yloxy)-pyridin-3-yl]-phenylsulfanyl}-butyric acid]

EC50 | SMILES
200 to 2000 nM | O=C(O)CCCSc1ccc(-c2cccnc2OC2CCOC2)cc1F (stereo not drawn) [Example 245, 4-{2-fluoro-4-[2-(tetrahydrofuran-3-yloxy)-pyridin-3-yl]-phenylsulfanyl}-butyric acid]
< 200 nM | O=C(O)CCCSc1ccc(-c2cccnc2OCC2CCC2)cc1F [Example 246, 4-[4-(2-cyclobutylmethoxy-pyridin-3-yl)-2-fluoro-phenylsulfanyl]-butyric acid]
< 200 nM | O=C(O)CCCSc1c(F)cc(-c2cccnc2OCC(F)(F)F)cc1F [Example 247, 4-{2,6-difluoro-4-[2-(2,2,2-trifluoro-ethoxy)-pyridin-3-yl]-phenylsulfanyl}-butyric acid]
< 200 nM | O=C(O)CCCSc1c(F)cc(-c2cccnc2OCC2CCC2)cc1F [Example 248, 4-[4-(2-cyclobutylmethoxy-pyridin-3-yl)-2,6-difluoro-phenylsulfanyl]-butyric acid]
< 200 nM | O=C(O)CCCSc1c(F)cc(-c2cccnc2NC2CCCC2)cc1F [Example 249, 4-[4-(2-cyclopentylamino-pyridin-3-yl)-2,6-difluoro-phenylsulfanyl]-butyric acid]
200 to 2000 nM | CC(C)Nc1ncccc1-c1cc(F)c(SCCCC(=O)O)c(F)c1 [Example 250, 4-[2,6-difluoro-4-(2-isopropylamino-pyridin-3-yl)-phenylsulfanyl]-butyric acid]
200 to 2000 nM | O=C(O)CCCSc1c(F)cc(-c2cccnc2NCC2CC2)cc1F [Example 251, 4-{4-[2-(cyclopropylmethyl-amino)-pyridin-3-yl]-2,6-difluoro-phenylsulfanyl}-butyric acid]
< 200 nM | O=C(O)CCCCSc1c(F)cc(-c2cccnc2OC2CCCC2)cc1F [Example 252, 5-[4-(2-cyclopentyloxy-pyridin-3-yl)-2,6-difluoro-phenylsulfanyl]-pentanoic acid]
200 to 2000 nM | CC(C)Oc1ncccc1-c1cc(F)c(SCCCCC(=O)O)c(F)c1 [Example 253, 5-[2,6-difluoro-4-(2-isopropoxy-pyridin-3-yl)-phenylsulfanyl]-pentanoic acid]
< 200 nM | O=C(O)CCCCSc1ccc(-c2cccnc2OC2CCCC2)cc1 [Example 254, 5-[4-(2-cyclopentyloxy-pyridin-3-yl)-phenylsulfanyl]-pentanoic acid]
200 to 2000 nM | CC(C)Oc1ncccc1-c1ccc(SCCCCC(=O)O)cc1 [Example 255, 5-[4-(2-isopropoxy-pyridin-3-yl)-phenylsulfanyl]-pentanoic acid]
< 200 nM | CCCSc1ncccc1-c1cc(F)c(SCCCCC(=O)O)c(F)c1 [Example 257, 5-[2,6-difluoro-4-(2-propylsulfanyl-pyridin-3-yl)-phenylsulfanyl]-pentanoic acid]
< 200 nM | O=C(O)CCCCSc1ccc(-c2cccnc2SC2CCCC2)cc1 [Example 258, 5-[4-(2-cyclopentylsulfanyl-pyridin-3-yl)-phenylsulfanyl]-pentanoic acid]
< 200 nM | O=C(O)CCCCSc1ccc(-c2cccnc2SC2CCC2)cc1 [Example 259, 5-[4-(2-cyclobutylsulfanyl-pyridin-3-yl)-phenylsulfanyl]-pentanoic acid]
< 200 nM | O=C(O)CCCCSc1c(F)cc(-c2cccnc2OCC2CCC2)cc1F [Example 260, 5-[4-(2-cyclobutylmethoxy-pyridin-3-yl)-2,6-difluoro-phenylsulfanyl]-pentanoic acid]
< 200 nM | O=C(O)CCCCCOc1c(F)cc(-c2cccnc2OC2CCCC2)cc1F [Example 262, 6-[4-(2-cyclopentyloxy-pyridin-3-yl)-2,6-difluoro-phenoxy]-hexanoic acid]
2000 to 20000 nM | O=C(O)CCCCCCOc1c(F)cc(-c2cccnc2OC2CCCC2)cc1F [Example 263, 7-[4-(2-cyclopentyloxy-pyridin-3-yl)-2,6-difluoro-phenoxy]-heptanoic acid]
200 to 2000 nM | CC(C)Oc1ncccc1-c1ccc(OCCCCC(=O)O)c(F)c1 [Example 264, 5-[2-fluoro-4-(2-isopropoxy-pyridin-3-yl)-phenoxy]-pentanoic acid]
< 200 nM | O=C(O)CCCCOc1ccc(-c2cccnc2SC2CCCC2)cc1F [Example 265, 5-[4-(2-cyclopentylsulfanyl-pyridin-3-yl)-2-fluoro-phenoxy]-pentanoic acid]
< 200 nM | O=C(O)CCCCOc1ccc(-c2cccnc2SC2CCC2)cc1F [Example 266, 5-[4-(2-cyclobutylsulfanyl-pyridin-3-yl)-2-fluoro-phenoxy]-pentanoic acid]

SMILES | EC50
CC(C)COc1ncccc1-c1cc(F)c(OCCCC(=O)O)c(F)c1 [Example 230, 4-[2,6-difluoro-4-(2-isobutoxy-pyridin-3-yl)-phenoxy]-butyric acid] | < 200 nM
O=C(O)CCCCSc1c(F)cc(-c2cccnc2OC2CCC2)cc1F [Example 261, 5-[4-(2-cyclobutoxy-pyridin-3-yl)-2,6-difluoro-phenylsulfanyl]-pentanoic acid] | < 200 nM
